Assay results from patent US9067920B2, “Compounds useful for inhibiting Chk1” (Eli Lilly and Company, priority 2010, dated 2015).
Where a name gives a salt, the structure may show the parent alone.

Columns and labels:
[1] = target: recombinant Chk2 protein kinase (Homo sapiens, UniProt O96017); experiment: Chk2 biochemical assay (CHK2/substrate peptide filter binding); conditions: 60 μM ATP, 1.4 nM Chk2 enzyme
Experimental: The effect of compounds on Chk2 biochemical activity can be determined using a CHK2/substrate peptide filter binding assay. In this assay, a synthetic peptide based on the amino acid sequence residues 206-225 of Cdc25C, is used as a phospho-acceptor substrate for recombinant Chk2 protein kinase. Using γ-^33P-ATP as the phospho-donor substrate, Chk2 transfers the radioactive γ-^33phosphate group to the synthetic peptide. The reaction is measured by capturing the peptide substrate on a cation exchange paper filter plate and scintillation counting of emitted beta particles.
The kinase reactions (40 μL reaction volumes) are performed in 96-well V-bottom polystyrene plates. Reactions are initiated with the addition of Chk2 enzyme. […]
Following Chk2 enzyme addition, the reactions are incubated at room temperature for 90 min, and then terminated with the addition of 140 μL of phosphoric acid. […] After sitting for 4 h at room temperature, the radioactivity in the plate is measured using a MicroBeta Trilux microplate scintillation counter (Perkin Elmer).
For IC50 determination, the percent inhibition for each concentration is calculated using the […] from controls run on each plate. […] Absolute IC50 values are calculated from the resulting curve. […]

[2] = tested on: HT-29 colon carcinoma cells; experiment: ECtfs (two-fold sensitization) assay, gemcitabine potentiation, MTS; format: cell-based
Experimental: An inhibitor of Chk1 can potentiate the anti-proliferative activity of gemcitabine (or other cytotoxics) through abrogation of the intra-S phase checkpoint, resulting in sustained and increased DNA damage. The capacity for continued tumor cell proliferation after DNA damage can be analyzed by determining the ability of cells to replicate their DNA. […] In this assay, cells are treated with a dilution series of gemcitabine, and then 22 h later with the compound of Example 3, After an additional 44 h, the relative cell number is assessed by a MTS (3-(4,5-dimethylthiazol-2-yl)-5-(3-carboxymethoxyphenyl)-2-(4-sulfophenyl)-2H-tetrazolium) dye reduction assay. The ECtfs parameter is a measure of the concentration of a Chk1 inhibitor necessary to reduce by half the (1190 concentration of gemcitabine, measured in this assay in the absence of Chk1 inhibition. HT-29 cells (obtained from ATCC), are grown in RPMI 1640 plus 10% (v/v) heat inactivated FBS, The cells are plated at 2.5×10^3 per well, in a volume of 100 μL on 96-well tissue culture plates and incubated for 24 h. Gemcitabine dilutions are prepared at 6× concentrations in McCoy's 5A medium (modified) (1×) and added to wells at 20 μper well. Gemcitabine dilutions were set up with the highest final concentration of gemcitabine being 1.0 μM and dilutions made by three-fold steps to 0.5 nM.
Chk1 Inhibitor is prepared by dilutions in DMSO to 4000× final concentration, and then diluted 666-fold into McCoy's medium to generate 6× stocks. Chk1 inhibitor dilutions proceed by 2.5-fold steps starting at 25 nM down to 0.3 nM. Twenty-two hours 1.0 after gemcitabine addition, Chk1, inhibitor is added in a volume of 24 μL to wells containing 120 μL of medium plus gemcitabine. Each gemcitabine dilution receives a single Chk1 inhibitor dilution. Control wells received DMSO, gemcitabine, or Chk1 inhibitor alone. Forty-four hours after addition of Chk1 inhibitor, 30 μL of CellTiter 96® AQueous assay reagent, is added to each well and held at room temperature for 1 hour and 45 minutes. Absorbance is read on a SpectraMax 250 (Molecular Devices) spectrophotometer at 490 nm. Data from the SpectraMax spectrophotometer are analyzed with GraphPad Prism 4.0. First, an averaged no cell control absorbance is subtracted from all other values in the matrix of data from each plate. Next, duplicate data points are averaged. Data are normalized for each Chk1 inhibitor concentration, with 0% cell number set as corrected A490=0, and 100% cell number set as the 0 nM gemcitabine mean value. […] Gemcitabine concentrations are converted to log concentrations, and normalized cell number values are converted to percent inhibition (percent inhibition=1.00-normalized value). Transformed data are plotted, and a non-linear regression is run to estimate an IC50 value for gemcitabine at each Chk1 inhibitor concentration. The nonlinear regression is calculated allowing the slope to vary, and without constraints for the top or bottom of the dose-response curves. The ECtfs value is calculated as follows: GI50 values for gemcitabine for each Chk1 inhibitor concentration are determined, plotted, and the concentration of Chk1 inhibitor necessary to decrease the gemcitabine alone GI50 by two-fold is determined by interpolation.
Compounds within the scope of the invention are tested in this assay run substantially as above. For example, the compound of Example 3 is tested and found to have an ECtfs value of 1.0 nM (SE=0.1, n=3). […]

Sequence of recombinant Chk2 protein kinase (O96017 whole entry, the tested form may be a part): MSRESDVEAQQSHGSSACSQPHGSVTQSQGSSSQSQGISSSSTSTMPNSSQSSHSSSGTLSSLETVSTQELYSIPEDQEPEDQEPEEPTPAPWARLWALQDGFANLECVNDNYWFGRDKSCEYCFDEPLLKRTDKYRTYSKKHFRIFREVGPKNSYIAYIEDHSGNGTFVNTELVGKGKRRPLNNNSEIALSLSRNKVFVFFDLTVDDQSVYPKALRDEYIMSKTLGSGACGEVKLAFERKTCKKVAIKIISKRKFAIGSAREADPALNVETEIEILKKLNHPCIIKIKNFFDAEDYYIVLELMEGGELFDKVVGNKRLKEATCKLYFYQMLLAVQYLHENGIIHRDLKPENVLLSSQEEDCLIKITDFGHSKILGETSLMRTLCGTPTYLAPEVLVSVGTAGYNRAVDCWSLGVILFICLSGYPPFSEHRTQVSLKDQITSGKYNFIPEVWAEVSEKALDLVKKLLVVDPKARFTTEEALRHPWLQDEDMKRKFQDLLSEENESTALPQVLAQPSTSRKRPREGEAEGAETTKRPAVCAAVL

| SMILES | IC50 [1] | decrease of the EC50 of gemcitabine ([2]; HT-29 cells, 25 nM of the compound) | ECtfs value ([2]; HT-29 cells, concentration that decreases the gemcitabine GI50 two-fold) | effect on the proliferation of HT-29 cells ([2]; compound alone, 25 nM) |
| --- | --- | --- | --- | --- |
| COc1nc(C)ccc1-c1cc(Nc2cncc(O[C@@H]3CCCNC3)n2)[nH]n1 [Example 1, (R)-[5-(2-Methoxy-6-methyl-pyridin-3-yl)-2H-pyrazol-3-yl]-[6-(piperidin-3-yloxy)-pyrazin-2-yl]-amine] | 11 nM |  |  |  |
| COc1nc(C)ccc1-c1cc(Nc2cncc(O[C@@H]3CCCNC3)n2)[nH]n1 [Example 3, (R)-[5-(2-Methoxy-6-methyl-pyridin-3-yl)-2H-pyrazol-3-yl]-[6-(piperidin-3-yloxy)-pyrazin-2-yl]-amine acetic acid salt] |  | 7 fold | 1.0 nM | little effect |
